These results are taken from patent US20040166559A1, “Vectors for gene therapy” (priority 2001, published 2004).

Values after ≈ are worked out from the molar mass of the structure shown. Like-named read-outs stand apart in the source and are kept apart here.

In test [1] the test system is T cell lines and primary T cells. The test can be described thus: GCV sensitivity of T cell lines and primary T cells transduced with corrected or non-corrected HSV-Tk vectors. It is filed as cell-based, human. Conditions: inhibition of cell viability. An excerpt:
FIG. 18. GCV sensitivity of T cell lines and primary T cells transduced with corrected or non-corrected HSV-Tk vectors. GCV sensitivity of Hut-78 (A) and CEM (B) cell line transduced with corrected SF/Tk/mut (?) or non-corrected vector G1Tk1SVNa (◯) or SF/Tk/wt (Δ) compared to untransduced T-cell lines (▪). The data represents the inhibition of cell viability and are the mean±SD of 8 and 3 different independent experiments, for CEM and Hut-78 cell lines respectively. (C) GCV sensitivity of primary T cells transduced with corrected sc-SFCMM3 (Δ) or non corrected SFCMM3 vectors (?) compared to untransduced T cells (▪).
Primary T cells and the T cell lines, HuT78 (ATCC TIB-161) and CEM (ATCC CRL 2265)] were transduced with G1Tk1SVNa, SF/Tk/wt, SF/Tk/mut, SFCMM3 or scSFCMM3 vectors. HSV-Tk PCR (as described in^7) was performed on transduced target cells. In addition, PCR was performed using primers which selectively amplified the deleted form of the HSV-Tk gene using a 5′ primer, which spans the truncation point [TrTk1: 5′CTCGACCAGG§GCCGTGCT. (§ denoting the junction) and the previously described RTk2 3′ primer^7. Splicing from the transduced cell lines was quantified as described.^7

A further test relates to transduced donor cells. Conditions: one patient with chronic GvHD; declined from 11.9%; cited from earlier work.
The subject of another test is TK-CEM sub-clones. The test can be described thus: Ganciclovir cytotoxic assay (3H-thymidine incorporation). It is filed as cell-based, human. To be noted: for IC50: Homo sapiens. The method, then: Cells were incubated for 4 days in the presence of increasing concentration of GCV (range from 0.05 to 12.5 μg/mL). Cell proliferation was measured by the incorporation of ^3H— thymidine into the cell DNA. Results are expressed as percentage of incorporated ^3H-thymidine at each GCV concentration respect to the incorporation obtained in the absence of GCV. (♦) non-transduced CEM cells and (▪) SFCMM 3 transduced TK-CEM sub-clones.
Ganciclovir Cytotoxic Assay
A total of 2×10^4 cells/well were seeded into a 96-well plate in 100 μL of medium. Cells were cultured for 4 days with increasing concentrations (from 0.05 to 12.5 μg/mL) of GCV (Cymevene®, Hoffman-La Roche A G, Germany). Afterwards, 1 μCi/well of tritiated thymidine (methyl ^3H-thymidine, TRA.120, 1.0 MBq/mL, Amersham International, England) was added 18 h. before harvesting the cell DNA in a cell harvester (Wallac, Gaitherburg, Md.). The incorporation of ^3H-thymidine into the DNA was measured in a β-scintillation counter (Wallac 1410, aitherburg, Md.). All GCV concentrations were tested in triplicate esults are expressed as percentage of incorporated ^3H-thymidine at each GCV concentration with respect to the incorporation obtained in the absence of GCV.
The expression of the HSV-TK transgene m the TK-CEM sub-clones was determined by the inhibition in cell proliferation when the cells were cultured at increasing concentrations of GCV.

Test [2] deals with circulating transduced T-cells. The test is described as follows: Clinical study: transduced donor T-cells with T cell depleted bone marrow, GCV treatment of GvHD. The format is in vivo, human. An excerpt: Escalating amounts of CD3^+ gene-modified cells were infused with T cell depleted bone marrow. Twelve patients with hematological malignancies received 2×10^5 (n=5), 6×10^5 (n=5) or 20×10^5 (n=2) transduced donor CD3^+ cells/kg with bone marrow from an HLA-identical sibling. Acute toxicity was not observed. […] Three patients developed acute GvHD grade≧II while 1 patient developed chronic GvHD (skin and salivary glands). […] In patients receiving GCV, blood samples for detection of gene-modified cells expressing the wild-type or truncated form of the HSV-Tk gene were harvested prior to GCV treatment and a regular two weeks intervals.

The next test relates to primary T-cells. The test can be described thus: GCV sensitivity of G1Tk1SvNa transduced primary T-cells following G418 selection. The format is cell-based, human. Conditions: n=12. The method, then:
Transduction of donor T-cells with the G1Tk1SvNa retroviral vector was as previously described (Robinet et al (1998) J. Hematother. 7, 205-215). PBMNC were cultured for 3 days with OKT3 (10 ng, Ortho) and rhIL-2 (500 U/mL, Chiron). Infection with retroviral supernatant for 24 hours was followed by G418 (800 μg/mL, Sigma) selection of transduced cells for 7 days. Dead cells were removed and the viable transduced product was cryopreserved for future use. The transduction of CEM cells with the G1Tk1SvNa vector involved identical infection conditions to those described for the SFCMM3 vector, followed by selection in G418 (800 μg/ml) for 7-14 days.
The transduction efficiency of primary T-cells with G1Tk1SvNa prior to G418 selection, as measured by quantitative PCR for Neo^R, was 8.3±1.4% (n=12). The GCV sensitivity of these cells following G418 selection was 87±1.2% (n=12). The relative cell growth of control and transduced cells from one representative transduction/selection experiment is shown in FIG. 16.

[3] abbreviates: patients, GCV treatment for GvHD, quantitative PCR of the NeoR gene.

As to `Nc1nc(O)c2ncn(COC(CO)CO)c2n1` [GCV], in test [1], the “GCV sensitivity of cells expressing the mutated HSV-Tk gene compared to populations transduced by wild-type gene” value was “only marginally increased”. In addition, in the test on transduced donor cells, the “proportion of transduced donor cells after administration of GCV” value is listed as 2.8%. In addition, the IC50 with TK-CEM sub-clones (96 h, TK-CEM clones #6 and #10, 4 days with GCV, read-out: concentration of GCV to achieve the 50% inhibition in cell proliferation) stood at 0.25 µg/mL (≈ 0.979 µM); with TK-CEM sub-clones (read-out: IC50 inhibition in cell proliferation assessed by the incorporation of 3H-thymidine) it was 0.1 µg/mL (≈ 0.392 µM). For the same molecule, the “cell proliferation at increasing concentrations of GCV” value with TK-CEM sub-clones (TK-CEM clones #1, #2, #4, #5, #7 and #14) is “parallel to that obtained in the non-transduced cells”. Also, the “complete inhibition in cell proliferation” value in the test on TK-CEM sub-clones (TK-CEM clones #6 and #10, GCV increased up to 12.5 μg/mL) is reported as “not completely achieved”. For the same molecule, the “change in circulating transduced T-cells” value in test [2] (patients receiving ganciclovir) is reported as “significant rapid decrease”. Also, in test [2] (setting [3]), the “reduction of absolute number of circulating transduced T-cells” value was 76-99.5%. Besides, the “reduction of percentage of circulating transduced T-cells” value in test [2] (setting [3]) is listed as 85-98%. In addition, the “outcome of chronic GvHD” value in test [2] (the patient with chronic GvHD (skin and salivary glands)) is listed as “Long-lasting CR”. For the same molecule, the “outcome of acute GvHD” value in test [2] (treatment with GCV alone, three patients had acute GvHD grade ≧II) is on record as “complete remission (CR) in 2 patients”. In the test on primary T-cells, this molecule showed a GCV sensitivity of 87±1.2%.
